In patent US10420758B2, “Indolinyl-sulfonamide inhibitors of tankyrase and methods of use thereof” (The Board of Regents of the University of Texas System, priority 2015, dated 2019):

Biological target: T1, catalytic domain of human Tnks1 (Homo sapiens, UniProt O95271)
T1 construct: The catalytic domain of human Tnks1 (residues 1105-1313) was expressed; His6 (with TEV site) (N, cleaved yes); made in house; host or cells: E. coli BL21 (DE3)
Assay: Crystal structures of IWR compound/Tnks1 complexes, binding pocket
Settings: crystal structure, FIGS. 3A-3C
Procedure: Protein Expression and Purification.
The catalytic domain of human Tnks1 (residues 1105-1313) was expressed by using a modified pET28 vector, which encodes an N-terminal His6-tag and a cleavage site for the Tobacco Etch Virus (TEV) protease. Protein expression was induced by 0.1 mM IPTG at 15° C. when the culture of the bacteria strain BL21 (DE3) transformed with the plasmid reached O.D. of 1.5. Cells were harvested 12 hrs after induction and lysed by Frenchpressing. The lysate was cleared by centrifugation at 15000 rpm for 1 hr. The protein was purified by Ni-NTA-based affinity chromatography and ion exchange chromatography. The N-terminal His6-tag was removed by overnight TEV protease treatment at 4° C. Purified protein was concentrated and stored in −80° C.
Crystallization, Data Collection and Structure Determination.
The purified Tnks1 catalytic domain at 5 mg/mL (0.22 mM) mixed with IWR-1 (the exo-form), IWR-3 and IWR-8 at 0.25 mM were subjected to crystallization trials by using sitting-drop 96-well plates. Following initial hits of crystallization, large crystals were obtained by hanging-drop vapor diffusion in conditions optimized based on the initial conditions. Crystals of the Tnks1/IWR-1 complex were grown at 20° C. in 0.1 M Bis-Tris (pH 5.3), 0.15 M MgCl2 and 20-23% PEG3350. […]

T1 sequence (O95271 1105-1313): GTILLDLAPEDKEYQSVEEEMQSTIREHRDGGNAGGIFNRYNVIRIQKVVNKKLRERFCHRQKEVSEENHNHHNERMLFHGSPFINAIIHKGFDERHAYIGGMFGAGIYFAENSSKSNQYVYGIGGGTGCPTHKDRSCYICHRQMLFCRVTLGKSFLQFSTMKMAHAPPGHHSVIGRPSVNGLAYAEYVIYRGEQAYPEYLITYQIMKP

## CCN(C(=O)C1CCN(S(=O)(=O)c2cc3c(cc2Br)CCN3C(C)=O)CC1)c1cccc(C)c1 [IWR-8]
  binding pocket engaged in Tnks1: engage the AD pocket
